The series deals with human PKK mRNA. The series is described as follows: Antisense inhibition of human PKK mRNA in HepaRG cells, 5,000 nM (Example 2). In kind it is cell-based. In a few lines:
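qRT-PCR (RTS3454) read-out, RIBOGREEN-normalized; % inhibition vs untreated cells. HepaRG, 20,000 cells/well, electroporation, 5,000 nM ASO, ~24 h.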

The mark [1] stands for this setting: human PKK mRNA, HepaRG cells, 5-10-5 motif oligonucleotides targeting SEQ ID NO: 1 and 10.
Where [2] appears, read: HepaRG cells, electroporation, 5,000 nM antisense oligonucleotide, approx. 24 hours, primer probe set RTS3454, relative to untreated control cells, Table 11.
[3] abbreviates: HepaRG cells, electroporation, 5,000 nM antisense oligonucleotide, approx. 24 hours, primer probe set RTS3454, relative to untreated control cells, Table 12.
Where [4] appears, read: human PKK mRNA in HepaRG cells, 5-10-5 gapmers, Table 14.
The mark [5] stands for this setting: Table 9 experiment, HepaRG cells, 20,000 cells per well, electroporation with 5,000 nM antisense oligonucleotide, approx. 24 hours, PKK mRNA by RT-PCR (RTS3454), relative to untreated control cells.
Setting [6] is: Table 10 experiment, HepaRG cells, 20,000 cells per well, electroporation with 5,000 nM antisense oligonucleotide, approx. 24 hours, PKK mRNA by RT-PCR (RTS3454), relative to untreated control cells.
Where [7] appears, read: HepaRG cells, 5,000 nM antisense oligonucleotide, 5-10-5 gapmers, Table 17.
Setting [8] is: Table 13, human PKK mRNA in HepaRG cells, 5-10-5 gapmers.
Where [9] appears, read: HepaRG cells, 5,000 nM antisense oligonucleotide, 5-10-5 gapmers, Table 16.
Setting [10] is: Table 7, HepaRG cells, electroporation with 5,000 nM antisense oligonucleotide, approx. 24 hours, PKK mRNA by RT-PCR (RTS3454), relative to untreated control cells.
Where [11] appears, read: human PKK mRNA, HepaRG cells, 5,000 nM antisense oligonucleotide, Table 18.

Strand notation (5' to 3'): a small letter for the sugar, then the base; units joined by * are phosphorothioate-linked, units joined directly phosphodiester-linked; [ ] holds rarer units or linkages, { } end groups; capitals alone tell only the bases. e = 2'-O-(2-methoxyethyl) (MOE); [5mC] = 5-methylcytosine; d = 2'-deoxy (DNA)

With “547667 (eT*eA*eT*e[5mC]*eA*d[5mC]*dT*dG*dT*dA*d[5mC]*d[5mC]*dT*dA*dT*eA*eA*e[5mC]*eT*eA; antisense) [compound 547667]”, the % inhibition (usually the change of the read-out against control, counted positive when it falls) under setting [1] is 55%. Turning to “546386 (eA*eG*e[5mC]*e[5mC]*eA*dG*dA*d[5mC]*dA*dT*dT*dG*dT*d[5mC]*d[5mC]*eT*e[5mC]*eA*eG*e[5mC]; antisense) [compound 546386]”, the “% inhibition” value under setting [2] is 78%. For “547557 (e[5mC]*eT*eG*eT*eG*d[5mC]*dT*dG*dT*dA*dT*dT*dT*dT*dG*eG*eA*eG*e[5mC]*e[5mC]; antisense) [compound 547557]”, the “% inhibition” value under setting [3] was 59%. On to “547607 (antisense eT*eA*eA*e[5mC]*eA*dA*dT*dA*dT*d[5mC]*dA*d[5mC]*dT*dG*dT*eA*e[5mC]*e[5mC]*eT*eA) [compound 547607]”, for which the “% inhibition” value under setting [4] is 49%. On to “546153 (eG*eG*eG*eT*eG*dT*dA*d[5mC]*dA*dT*dG*dG*dA*dA*dG*e[5mC]*eT*eA*e[5mC]*eA; antisense) [compound 546153]”, for which, for the setting “HepaRG cells, electroporation with 5,000 nM antisense oligonucleotide, approximately 24 hours, PKK mRNA by RT-PCR (RTS3454), relative to untreated control cells, Table 5 experiment”, the “% inhibition” value came to 76%. As for “547480 (antisense eT*eT*e[5mC]*eT*eT*dT*dA*dT*dA*dG*d[5mC]*d[5mC]*dA*dG*d[5mC]*eA*e[5mC]*eA*eG*eA) [compound 547480]”, the “% inhibition” value by setting is: under setting [5], 60%; under setting [6], 49%.

In the case of “546999 (eG*e[5mC]*eA*eG*e[5mC]*dT*d[5mC]*dA*d[5mC]*dA*d[5mC]*d[5mC]*d[5mC]*dA*dA*eA*eA*eA*eG*e[5mC]; antisense) [compound 546999]”, the “% inhibition” value under setting [7] amounted to 29%. On to “548706 (DNA e[5mC]*eT*eA*dG*dT*dT*dT*d[5mC]*d[5mC]*dT*dA*dT*dA*eA*e[5mC]*eT; antisense) [compound 548706]”, for which, under “HepaRG cells, 5,000 nM antisense oligonucleotide, human PKK mRNA, Table 18”, the “% inhibition” value amounted to 0%. For the substance “547017 (eG*eG*eT*eA*eG*dG*dT*dG*dG*dT*dG*dG*dG*dA*dT*eT*eG*eG*eT*eG; antisense) [compound 547017]”, the “% inhibition” value under setting [7] was 61%. For “547583 (e[5mC]*eA*e[5mC]*eT*eG*dT*d[5mC]*d[5mC]*dT*dA*dT*dA*dT*d[5mC]*dA*e[5mC]*eT*eG*eT*e[5mC]; antisense) [compound 547583]”, the “% inhibition” value under setting [8] came to 80%.

“547085 (e[5mC]*e[5mC]*eA*eG*eG*dT*dG*d[5mC]*dA*dG*d[5mC]*dA*d[5mC]*dG*dG*eA*eG*eA*eG*eG; antisense) [compound 547085]”: the “% inhibition” value under setting [7] is recorded as 44%. As for “547620 (antisense eT*eT*e[5mC]*e[5mC]*eT*dA*dT*dA*dA*d[5mC]*dA*dG*dT*dA*dT*e[5mC]*eA*e[5mC]*eT*eG) [compound 547620]”, the “% inhibition” value under setting [4] was 65%. Turning to “547696 (antisense e[5mC]*eA*e[5mC]*eT*eG*dT*d[5mC]*d[5mC]*dT*dA*dT*dA*dA*d[5mC]*dT*eA*eT*eT*eA*e[5mC]) [compound 547696]”, the “% inhibition” value under setting [9] amounted to 26%. Consider “547605 (antisense eA*e[5mC]*eA*eA*eT*dA*dT*d[5mC]*dA*d[5mC]*dT*dG*dT*dA*d[5mC]*e[5mC]*eT*eA*eT*eA) [compound 547605]”, for which the “% inhibition” value under setting [4] is 43%. As to “547570 (eA*eA*eG*e[5mC]*e[5mC]*d[5mC]*dT*dG*dT*dT*dT*dG*dG*dT*dT*eT*eT*eT*eA*eG; antisense) [compound 547570]”, under setting [8], the “% inhibition” value came to 18%. Same read-out and setting: then “547572 (eA*eA*eA*eT*eG*dA*d[5mC]*dA*d[5mC]*d[5mC]*dA*dA*dA*dA*dT*eT*e[5mC]*eG*e[5mC]*eT; antisense) [compound 547572]”, with 40%. As to “547398 (e[5mC]*eA*eG*eG*eG*dT*dT*d[5mC]*dA*dG*dG*dT*dA*dA*dA*eG*eT*eT*e[5mC]*eT; antisense) [compound 547398]”, under setting [10], the “% inhibition” value turned out to be 16%. For “546831 (eT*e[5mC]*eT*eA*eA*d[5mC]*dA*dG*dT*dA*dT*d[5mC]*dA*d[5mC]*dT*eG*eT*eA*e[5mC]*eT; antisense) [compound 546831]”, the “% inhibition” value under setting [8] was determined as 79%. Turning to “547670 (eT*eA*e[5mC]*eA*eA*d[5mC]*dT*dA*dT*dA*dA*d[5mC]*dA*dG*dT*eA*eT*e[5mC]*eA*e[5mC]; antisense) [compound 547670]”, the “% inhibition” value under setting [1] is reported as 0%. As to “546858 (e[5mC]*eT*eA*eT*eA*dA*d[5mC]*dT*dA*dT*dA*dA*d[5mC]*dA*dG*eT*eA*eT*e[5mC]*eA; antisense) [compound 546858]”, under setting [4], the “% inhibition” value came to 21%. On to “547383 (eT*eT*e[5mC]*eT*eT*dT*dG*dT*dG*dA*d[5mC]*dT*d[5mC]*dG*dA*eT*eT*eT*eT*e[5mC]; antisense) [compound 547383]”, for which the “% inhibition” value under setting [10] turned out to be 37%. For the substance “548775 (antisense eT*e[5mC]*e[5mC]*eT*dA*dT*dA*dA*d[5mC]*dT*dA*dT*dA*eA*e[5mC]*eA*eG) [compound 548775]”, the “% inhibition” value under setting [11] was found to be 0%. On the same count and under the same terms, then “548777 (antisense eG*eT*eA*eA*d[5mC]*dA*dG*dT*dA*dT*d[5mC]*dA*d[5mC]*eT*eG*eT*eA) [compound 548777]”, with 41%. Consider “547322 (antisense e[5mC]*eT*eT*e[5mC]*eA*dA*dG*dG*dA*dA*dT*dG*dT*d[5mC]*d[5mC]*eA*eG*eA*eA*eA) [compound 547322]”, for which the “% inhibition” value (HepaRG cells, electroporation with 5,000 nM antisense oligonucleotide, approximately 24 hours, PKK mRNA by RT-PCR (RTS3454), relative to untreated control cells, Table 6 experiment) came out at 65%.

Consider “546599 (eA*eA*eG*eA*eG*dT*dA*dA*dG*d[5mC]*d[5mC]*dT*dT*d[5mC]*dA*e[5mC]*eA*eG*eG*eG; antisense) [compound 546599]”, for which the “% inhibition” value under setting [7] amounted to 82%.

Take “547677 (antisense e[5mC]*eA*eT*e[5mC]*eA*d[5mC]*dT*dG*dT*d[5mC]*d[5mC]*dT*dA*dT*dA*eA*e[5mC]*eT*eA*eT) [compound 547677]”: the “% inhibition” value under setting [9] amounted to 62%.

Regarding “546271 (eA*eG*eA*eA*eA*d[5mC]*dA*d[5mC]*dT*dT*dA*d[5mC]*dA*d[5mC]*dT*eT*e[5mC]*eT*e[5mC]*eT; antisense) [compound 546271]”, the “% inhibition” value (Table 8, HepaRG cells, electroporation with 5,000 nM antisense oligonucleotide, approx. 24 hours, PKK mRNA by RT-PCR (RTS3454), relative to untreated control cells) is on record as 60%. Consider “546409 (eG*eG*eG*eT*eT*dT*d[5mC]*dT*dG*d[5mC]*d[5mC]*dA*dA*d[5mC]*dA*eG*eT*eT*eT*e[5mC]; antisense) [compound 546409]”, for which, under setting [3], the “% inhibition” value was 77%. On to “546883 (e[5mC]*eT*eA*eG*eT*dT*dT*d[5mC]*d[5mC]*dT*dA*dT*dA*dA*d[5mC]*eA*eG*eT*eA*eT; antisense) [compound 546883]”, for which, under setting [4], the “% inhibition” value amounted to 19%.

For the substance “546891 (e[5mC]*eT*eG*eT*e[5mC]*d[5mC]*dT*dA*dT*dG*dT*d[5mC]*dA*d[5mC]*dT*eG*eT*eA*e[5mC]*e[5mC]; antisense) [compound 546891]”, the “% inhibition” value under setting [1] was found to be 81%.

For “547523 (antisense eT*eT*eG*eT*e[5mC]*dA*dG*d[5mC]*d[5mC]*d[5mC]*d[5mC]*dT*dG*dG*dT*eT*eA*e[5mC]*eG*eG) [compound 547523]”, under setting [2], the “% inhibition” value came to 69%. With “547614 (antisense e[5mC]*e[5mC]*eT*eA*eT*dA*dT*d[5mC]*dA*d[5mC]*dT*dG*dT*dA*d[5mC]*e[5mC]*eT*eG*eT*eA) [compound 547614]”, under setting [4], the “% inhibition” value was determined as 81%. For the substance “546316 (antisense eG*e[5mC]*e[5mC]*eT*eG*dG*dA*dG*dT*dT*dT*dT*dA*dT*d[5mC]*eA*eA*eG*eG*e[5mC]) [compound 546316]”, the “% inhibition” value reads like this: under setting [5], 51%; under setting [6], 60%.
